Assay results taken from ChEMBL document CHEMBL5150076, “Discovery of Novel Orally Bioavailable Triazoles with Potent and Broad-Spectrum Antifungal Activity In Vitro and In Vivo” (J Med Chem, 2022).
≈ marks a conversion by molar mass, not a printed value. Calls of active or inactive are those of the source. The calls are words filed in the database; no cut-off is given here.

Experiments:
Candida albicans [1] = experiment: Antifungal activity against Candida albicans 12#; format: functional
Aspergillus fumigatus = experiment: Antifungal activity against Aspergillus fumigatus 7544 incubated for 48 hrs by microbroth dilution method; format: functional
[2] = target: T1, Lanosterol 14-alpha demethylase (Candida albicans (strain SC5314 / ATCC MYA-2876) (Yeast), UniProt P10613); experiment: Inhibition of CYP51 in Candida albicans SC5314 assessed as eburicol level at 4 ug/ml measured after 12 hrs by GC-MS analysis (reference value: 0.00%); set-up: scale not given: the % may be the effect or the level left; settings: at 4 µg/mL
T1 sequence (P10613 whole entry): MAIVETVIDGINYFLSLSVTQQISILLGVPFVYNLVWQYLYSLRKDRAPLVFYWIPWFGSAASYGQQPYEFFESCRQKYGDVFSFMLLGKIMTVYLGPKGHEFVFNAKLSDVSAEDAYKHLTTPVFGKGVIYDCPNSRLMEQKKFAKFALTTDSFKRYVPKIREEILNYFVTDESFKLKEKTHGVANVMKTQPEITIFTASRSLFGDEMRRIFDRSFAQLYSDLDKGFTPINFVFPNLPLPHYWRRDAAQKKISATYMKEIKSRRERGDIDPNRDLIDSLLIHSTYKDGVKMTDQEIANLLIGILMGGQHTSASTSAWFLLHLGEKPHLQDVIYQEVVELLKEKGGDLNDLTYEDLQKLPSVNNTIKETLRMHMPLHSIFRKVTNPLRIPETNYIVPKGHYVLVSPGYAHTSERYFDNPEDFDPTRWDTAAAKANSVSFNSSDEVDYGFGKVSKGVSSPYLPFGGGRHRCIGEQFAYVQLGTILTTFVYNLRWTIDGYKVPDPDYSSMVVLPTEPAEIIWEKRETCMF

Pichia kudriavzevii [3] = experiment: Antifungal activity against Candida krusei 463; format: functional
Candida tropicalis [4] = experiment: Antifungal activity against Candida tropicalis 112936; format: functional
Candida parapsilosis [5] = experiment: Antifungal activity against Candida parapsilosis 700; format: functional; settings: Lodderomyces parapsilosis
[Candida] auris [6] = Antifungal activity against Candida auris D12; format: functional; settings: Candidozyma auris
[Candida] auris [7] = Antifungal activity against Candida auris BS12372; format: functional; settings: Candidozyma auris
[8] = Induction of drug resistance in Candida albicans SC5314 assessed as increase in MIC after 26 days; format: functional; settings: SC5314, 624 h, time 26 day
Pichia kudriavzevii [9] = experiment: Antifungal activity against Candida krusei 629; format: functional
Candida albicans [10] = experiment: Antifungal activity against Candida albicans 14#; format: functional
Cryptococcus neoformans [11] = experiment: Antifungal activity against Cryptococcus neoformans H99 infected in ICR mouse assessed as median survival time at 2 mg/kg, po qd infected with fungus for 2 hrs prior to compound addition for 7 days and measured for 20 days; format: functional; settings: time 20 day
[12] = target: T1, Lanosterol 14-alpha demethylase; experiment: Inhibition of CYP51 in Candida albicans SC5314 assessed as sterol level at 4 ug/ml measured after 12 hrs by GC-MS analysis (reference value: 25.23%); set-up: scale not given: the % may be the effect or the level left; settings: at 4 µg/mL
Candida albicans [13] = experiment: Antifungal activity against Candida albicans 20#; format: functional
[14] = target: T1, Lanosterol 14-alpha demethylase; experiment: Inhibition of CYP51 in Candida albicans SC5314 assessed as eburicol level at 0.5 ug/ml measured after 12 hrs by GC-MS analysis (reference value: 0.00%); set-up: scale not given: the % may be the effect or the level left; settings: at 0.5 µg/mL
Candida albicans [15] = experiment: Antifungal activity against Candida albicans SC5314 infected in ICR mouse assessed as median survival time at 0.5 mg/kg, po qd infected with fungus for 2 hrs prior to compound addition for 7 days and measured for 20 days; format: functional; settings: time 20 day
[16] = Induction of drug resistance in Candida albicans SC5314 assessed as increase in MIC after 2 weeks (reference value: 0.5 microg/ml); format: functional; settings: SC5314, 336 h
Cryptococcus neoformans [17] = experiment: Antifungal activity against Cryptococcus neoformans H99 incubated for 72 hrs by microbroth dilution method; format: functional
Candida albicans [18] = experiment: Antifungal activity against Candida albicans 100 infected in ICR mouse assessed as delay in mortality at 0.25 mg/kg, po qd infected with fungus for 2 hrs prior to compound addition for 7 days and measured for 20 days; format: functional, organism-based; settings: time 20.0 day
Candida albicans [19] = experiment: Antifungal activity against Candida albicans 25#; format: functional
Candida albicans [20] = experiment: Antifungal activity against Candida albicans 162; format: functional
Cryptococcus neoformans [21] = experiment: Antifungal activity against Cryptococcus neoformans H99 infected in ICR mouse assessed as delay in mortality at 2 mg/kg, po qd infected with fungus for 2 hrs prior to compound addition for 7 days and measured for 20 days; format: functional, organism-based; settings: time 20.0 day
Candida parapsilosis [22] = experiment: Antifungal activity against Candida parapsilosis 660; format: functional; settings: Lodderomyces parapsilosis
Candida albicans [23] = experiment: Antifungal activity against Candida albicans SC5314 infected in ICR mouse assessed as delay in mortality at 0.5 mg/kg, po qd infected with fungus for 2 hrs prior to compound addition for 7 days and measured for 20 days; format: functional, organism-based; settings: time 20.0 day
Candida albicans [24] = experiment: Antifungal activity against Candida albicans 28#; format: functional
Candida albicans [25] = experiment: Antifungal activity against Candida albicans 305; format: functional
[26] = target: T1, Lanosterol 14-alpha demethylase; experiment: Inhibition of CYP51 in Candida albicans SC5314 assessed as lanosterol level at 0.5 ug/ml measured after 12 hrs by GC-MS analysis (reference value: 2.18%); set-up: scale not given: the % may be the effect or the level left; settings: at 0.5 µg/mL
Candida albicans [27] = experiment: Antifungal activity against Candida albicans 100 infected in ICR mouse assessed as median survival time at 0.25 mg/kg, po qd infected with fungus for 2 hrs prior to compound addition for 7 days and measured for 20 days; format: functional; settings: time 20 day
Nakaseomyces glabratus [28] = experiment: Antifungal activity against Candida glabrata 537; format: functional
[29] = target: T1, Lanosterol 14-alpha demethylase; experiment: Inhibition of CYP51 in Candida albicans SC5314 assessed as sterol level at 0.5 ug/ml measured after 12 hrs by GC-MS analysis (reference value: 25.23%); set-up: scale not given: the % may be the effect or the level left; settings: at 0.5 µg/mL
Nannizzia gypsea = experiment: Antifungal activity against Microsporum gypseum; format: functional
[30] = target: T1, Lanosterol 14-alpha demethylase; experiment: Inhibition of CYP51 in Candida albicans SC5314 assessed as ergosterol level at 4 ug/ml measured after 12 hrs by GC-MS analysis (reference value: 72.58%); set-up: scale not given: the % may be the effect or the level left; settings: at 4 µg/mL
in vitro = settings: human, Caco-2 cells; at 64 µg/mL
Candida parapsilosis [31] = experiment: Antifungal activity against Candida parapsilosis 90018; format: functional; settings: Lodderomyces parapsilosis
Candida tropicalis [32] = experiment: Antifungal activity against Candida tropicalis ATCC750; format: functional
Nakaseomyces glabratus [33] = experiment: Antifungal activity against Candida glabrata ATCC2001; format: functional
Cryptococcus neoformans [34] = experiment: Antifungal activity against Cryptococcus neoformans 32605; format: functional
Pichia kudriavzevii [35] = experiment: Antifungal activity against Candida krusei 397; format: functional
Trichophyton rubrum = experiment: Antifungal activity against Trichophyton rubrum cmccftla; format: functional
Candida parapsilosis [36] = experiment: Antifungal activity against Candida parapsilosis 22019; format: functional; settings: Lodderomyces parapsilosis
[Candida] auris [37] = Antifungal activity against Candida auris 887; format: functional; settings: Candidozyma auris
Pichia kudriavzevii [38] = experiment: Antifungal activity against Candida krusei 467; format: functional
Candida albicans [39] = experiment: Antifungal activity against Candida albicans Y0109; format: functional
[Candida] auris [40] = Antifungal activity against Candida auris 791; format: functional; settings: Candidozyma auris
Candida albicans [41] = experiment: Antifungal activity against Candida albicans SC5314 incubated for 24 hrs by microbroth dilution method; format: functional
[42] = target: T1, Lanosterol 14-alpha demethylase; experiment: Inhibition of CYP51 in Candida albicans SC5314 assessed as lanosterol level at 4 ug/ml measured after 12 hrs by GC-MS analysis (reference value: 2.18%); set-up: scale not given: the % may be the effect or the level left; settings: at 4 µg/mL
[43] = Cytotoxicity against HUVEC assessed as cell viability at 64 ug/ml incubated for 24 hrs by CCK-8 assay; format: toxicity, cell-based; settings: human, HUVEC cells, at 64 µg/mL, read-out: Activity
[44] = Induction of hemolysis in rabbit RBC at 64 ug/ml incubated for 1 hr; format: toxicity, cell-based, Oryctolagus cuniculus, Erythrocyte; settings: red blood cells, at 64 µg/mL, read-out: Activity

OC(Cn1cncn1)(Cn1cncn1)c1ccc(F)cc1F [FLUCONAZOLE]
MIC (Candida albicans [1]): > 64 µg/mL
MIC (Aspergillus fumigatus): > 64 µg/mL
Activity [2]: 87.88%
MIC (Pichia kudriavzevii [3]): 4 µg/mL (≈ 13.1 µM)
MIC (Candida tropicalis [4]): > 64 µg/mL
MIC (Candida parapsilosis [5]): 2 µg/mL (≈ 6.53 µM)
MIC ([Candida] auris [6]): > 64 µg/mL
MIC ([Candida] auris [7]): > 64 µg/mL
MIC [8]: 16 µg/mL
MIC (Pichia kudriavzevii [9]): 4 µg/mL (≈ 13.1 µM)
MIC (Candida albicans [10]): > 64 µg/mL
Time (Cryptococcus neoformans [11]): 8.5 days
Activity [12]: 5.77%
MIC (Candida albicans [13]): 0.5 µg/mL (≈ 1.63 µM)
Activity [14]: 2.61%
Time (Candida albicans [15]): 14 days
MIC [16]: 4 µg/mL
MIC (Cryptococcus neoformans [17]): 0.5 µg/mL (≈ 1.63 µM)
Activity (Candida albicans [18]): Active
MIC (Candida albicans [19]): > 64 µg/mL
MIC (Candida albicans [20]): > 64 µg/mL
Activity (Cryptococcus neoformans [21]): Active
MIC (Candida parapsilosis [22]): 0.5 µg/mL (≈ 1.63 µM)
Activity (Candida albicans [23]): Active
MIC (Candida albicans [24]): 2 µg/mL (≈ 6.53 µM)
MIC (Candida albicans [25]): > 64 µg/mL
Activity [26]: 18.14%
Time (Candida albicans [27]): 8.5 days
MIC (Nakaseomyces glabratus [28]): 2 µg/mL (≈ 6.53 µM)
Activity [29]: 4.69%
MIC (Nannizzia gypsea): 32 µg/mL (≈ 104 µM)
Activity [30]: 0.62%
viability at 24 h, 64 ug/ml (in vitro): 101%
MIC (Candida parapsilosis [31]): 0.5 µg/mL (≈ 1.63 µM)
MIC (Candida tropicalis [32]): > 64 µg/mL
MIC (Nakaseomyces glabratus [33]): 2 µg/mL (≈ 6.53 µM)
MIC (Cryptococcus neoformans [34]): 0.5 µg/mL (≈ 1.63 µM)
MIC (Pichia kudriavzevii [35]): 2 µg/mL (≈ 6.53 µM)
MIC (Trichophyton rubrum): 8 µg/mL (≈ 26.1 µM)
MIC (Candida parapsilosis [36]): 2 µg/mL (≈ 6.53 µM)
MIC ([Candida] auris [37]): > 64 µg/mL
MIC (Pichia kudriavzevii [38]): 4 µg/mL (≈ 13.1 µM)
MIC (Candida albicans [39]): 0.25 µg/mL (≈ 0.816 µM)
MIC ([Candida] auris [40]): > 64 µg/mL
MIC (Candida albicans [41]): 0.5 µg/mL (≈ 1.63 µM)
Activity [42]: 5.73%
viability at 24 h, 64 ug/ml [43]: 88.4%
hemolysis at 1 h, 64 ug/ml [44]: 1.01%

CCC(C)n1ncn(-c2ccc(N3CCN(c4ccc(OCC5COC(Cn6cncn6)(c6ccc(Cl)cc6Cl)O5)cc4)CC3)cc2)c1=O (centres undefined) [ITRACONAZOLE]
MIC (Candida albicans [1]): > 64 µg/mL
MIC (Pichia kudriavzevii [3]): 1 µg/mL (≈ 1.42 µM)
MIC (Candida tropicalis [4]): > 16 µg/mL
MIC (Candida parapsilosis [5]): 4 µg/mL (≈ 5.67 µM)
MIC ([Candida] auris [6]): 4 µg/mL (≈ 5.67 µM)
MIC ([Candida] auris [7]): 1 µg/mL (≈ 1.42 µM)
MIC (Pichia kudriavzevii [9]): 1 µg/mL (≈ 1.42 µM)
MIC (Candida albicans [10]): > 64 µg/mL
MIC (Candida albicans [13]): 0.5 µg/mL (≈ 0.709 µM)
MIC (Candida albicans [19]): > 64 µg/mL
MIC (Candida albicans [20]): > 64 µg/mL
MIC (Candida parapsilosis [22]): 1 µg/mL (≈ 1.42 µM)
MIC (Candida albicans [24]): 0.5 µg/mL (≈ 0.709 µM)
MIC (Candida albicans [25]): > 16 µg/mL
MIC (Candida parapsilosis [31]): 0.5 µg/mL (≈ 0.709 µM)
MIC (Candida tropicalis [32]): > 16 µg/mL
MIC (Nakaseomyces glabratus [33]): 2 µg/mL (≈ 2.83 µM)
MIC (Pichia kudriavzevii [35]): 2 µg/mL (≈ 2.83 µM)
MIC ([Candida] auris [37]): 4 µg/mL (≈ 5.67 µM)
MIC (Pichia kudriavzevii [38]): 2 µg/mL (≈ 2.83 µM)
MIC ([Candida] auris [40]): 4 µg/mL (≈ 5.67 µM)
